Measurements taken from PMC9936582, “Sulfamate Acetamides as Self-Immolative Electrophiles for Covalent Ligand-Directed Release Chemistry” (Journal of the American Chemical Society, 2023).
“Also recorded” adds a separate entry of the source.

Experiments:
BTK [1] = target: BTK (Homo sapiens, UniProt Q06187); assay: BTK activity (autophosphorylation) in Mino cells, Western blot; type: cell-based; design: endogenous in cells; host or cells: Mino cells; details: anti-IgM activation, Western blot normalized to β-actin
Method: To assess the cellular efficacy of these compounds, we followed the inhibition of BTK autophosphorylation in Mino cells. After 1 h of pre-incubation with the inhibitors and B-cell activation with an anti-IgM antibody, BTK autophosphorylation was followed by Western blot.
The cell pellets were subjected to immunoblotting, and Western blots were performed for p-BTK, BTK, and β-actin.
Cell pellets were washed with ice-cold PBS and lysed using RIPA buffer (Sigma, R0278). […] Samples containing 50 μg total protein were prepared with 4× LDS sample buffer (NuPAGE, Thermo Scientific, NP0007) and 20 mM DTT, which were then resolved on a 4–20% Bis–Tris gel (GeneScript SurePAGE, M00657). […] An EZ-ECL Kit (Biological Industries, 20-500-1000) was used to detect HRP activity.

Mino cells = assay: isoDTB ABPP in Mino cells; type: cell-based, human; details: for isoDTB-ABPP H/L Ratio: mino cells, 1 µM compound, 2h
IgM+/CD5+ cells = assay: TCL1 adoptive transfer mouse model for CLL; type: in vivo; details: after 2 weeks of treatment, vs untreated mice
Method: (§1) We tested compound 3c in the TCL1 adoptive transfer mouse model for CLL.[42] In this experiment, immune-competent healthy mice received an adoptive transfer of 4 × 10^7 TCL1 splenocytes obtained from full leukemic TCL1 transgenic mice by intravenous injection (Figure 4D). IgM+/CD5+ cells were monitored weekly, and treatment (or mock treatment) was started 4 weeks after transplantation when CD5+ were > 30% in the blood. The mice received a solution containing sulfamate 3c (0.16 mg/mL in 1% cyclodextrin water) ad libitum in the drinking water. […] Moreover, spleens were isolated from the mice after 2 weeks of treatment and quantified.
TCL1 mice for this model were generated as previously described.[42] For this experiment, TCL1 mice approximately 12 months of age with a malignant cell population higher than 60% in the PB were sacrificed. Their spleens were excised, and 4 × 10^7 cells resuspended in PBS^–/– were injected into the tail vein of 6 week old recipient mice. Progression of the disease was followed in the PB by using flow cytometry for the +IgM/+CD5 population. Mice with >30% IgM+/CD5+ cells were considered to be diseased and were used for further analysis.
Isolated cells were stained using specific antibodies (IgM-PE, CD5-APC, BioLegend) in staining buffer (0.5% bovine serum albumin in phosphate-buffered saline) for 30 min in 4 °C in dark then washed twice. […]

[2] = Metabolic stability in human liver microsomes; details: 5 min incubation
BTK [3] = target: T1, BTK (Mus musculus, UniProt P35991); assay: BTK engagement in treated mice spleens; type: in vivo; details: spleen lysates, ibrutinib alkyne analogue, TAMRA-azide
T1 construct: the dissected spleens were extracted with RIPA buffer and incubated with an ibrutinib alkyne analogue; from tissue; host or cells: spleen of mice with adoptively transferred TCL1 leukemic splenocytes
Method: as §1
Pellets of harvested spleens were lysed using RIPA buffer (Sigma, R0278) and clarified at 21,000g for 15 min at 4 °C, and protein concentration was determined using BCA protein assay (Thermo Scientific, 23225). Lysates were diluted to 2 mg/mL, 50 μL per sample, and incubated for 1 h in room temperature with 1 μM probe 4 to label BTK. Lysates were then clicked to TAMRA-azide and imaged using ChemiDoc MP (546 nm) as described in the in-gel fluorescence protocol.

Chain of BTK (Homo sapiens, UniProt Q06187) (Q06187 whole entry): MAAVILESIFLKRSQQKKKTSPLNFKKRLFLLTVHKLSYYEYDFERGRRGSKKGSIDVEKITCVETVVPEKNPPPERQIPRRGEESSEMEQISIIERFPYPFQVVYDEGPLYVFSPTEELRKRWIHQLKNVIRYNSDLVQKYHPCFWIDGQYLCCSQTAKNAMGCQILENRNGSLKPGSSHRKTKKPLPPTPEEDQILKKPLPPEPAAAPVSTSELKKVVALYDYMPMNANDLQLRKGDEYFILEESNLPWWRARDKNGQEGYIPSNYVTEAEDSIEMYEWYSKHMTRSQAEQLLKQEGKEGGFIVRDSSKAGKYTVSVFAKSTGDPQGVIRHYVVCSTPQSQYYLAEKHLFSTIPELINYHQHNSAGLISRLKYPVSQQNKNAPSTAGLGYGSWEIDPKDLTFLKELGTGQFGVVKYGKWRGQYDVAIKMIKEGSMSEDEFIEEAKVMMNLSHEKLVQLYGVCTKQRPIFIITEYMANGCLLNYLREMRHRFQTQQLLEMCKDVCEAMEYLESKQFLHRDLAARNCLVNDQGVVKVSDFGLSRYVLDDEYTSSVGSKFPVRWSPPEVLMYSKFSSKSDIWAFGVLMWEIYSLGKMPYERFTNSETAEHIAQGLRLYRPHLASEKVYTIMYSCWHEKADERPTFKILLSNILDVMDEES
T1 sequence (P35991 whole entry): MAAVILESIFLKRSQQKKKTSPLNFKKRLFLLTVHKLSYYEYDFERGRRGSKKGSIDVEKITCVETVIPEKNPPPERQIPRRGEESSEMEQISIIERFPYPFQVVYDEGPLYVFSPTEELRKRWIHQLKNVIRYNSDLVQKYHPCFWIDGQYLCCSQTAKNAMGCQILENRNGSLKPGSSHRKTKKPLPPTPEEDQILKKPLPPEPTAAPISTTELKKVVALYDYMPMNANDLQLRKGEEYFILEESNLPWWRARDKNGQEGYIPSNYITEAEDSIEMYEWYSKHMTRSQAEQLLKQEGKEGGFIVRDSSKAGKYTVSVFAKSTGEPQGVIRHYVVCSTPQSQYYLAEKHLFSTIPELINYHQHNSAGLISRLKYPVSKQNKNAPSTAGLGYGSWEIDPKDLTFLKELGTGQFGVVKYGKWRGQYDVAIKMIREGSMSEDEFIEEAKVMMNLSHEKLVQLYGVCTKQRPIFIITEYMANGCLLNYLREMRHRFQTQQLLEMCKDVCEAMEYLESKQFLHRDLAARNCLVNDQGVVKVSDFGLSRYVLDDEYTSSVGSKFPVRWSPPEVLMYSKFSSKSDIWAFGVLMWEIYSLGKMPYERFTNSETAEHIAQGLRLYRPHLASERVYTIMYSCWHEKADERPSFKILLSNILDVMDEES

Row | IC50 (BTK [1]) [nM] | compound remaining intact [2] | BTK engagement in vivo (probe labeling of spleen lysate) (BTK [3]) | Compound | number of off-targets (H/L ratio > 2) (Mino cells; Mino cells, 1 μM, 2 h) | isoDTB-ABPP H/L Ratio (Mino cells; P27708_C379) | isoDTB-ABPP H/L Ratio (Mino cells; P48643_C377) | spleen size (IgM+/CD5+ cells)
1 | 164 | – | – | Nc1ncnc2c1c(-c1ccc(Oc3ccccc3)cc1)nn2[C@@H]1CCCN(C(=O)COS(=O)(=O)NCc2ccccc2)C1 [3d] | – | – | – | –
2 | 3.6 | over 30% | do not show probe labeling | CNS(=O)(=O)OCC(=O)N1CCC[C@@H](n2nc(-c3ccc(Oc4ccccc4)cc3)c3c(N)ncnc32)C1 [3c] | 10 | 5.926 | 5.696 | decreased spleen size; also recorded: visually smaller
